These results are taken from ChEMBL document CHEMBL1201862, “PubChem BioAssay data set” (2004).

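Where inhibition never reached the appropriate level, the endpoint shown equals the highest concentration tested. Otherwise, values were interpolated linearly from a five-concentration, 48-hour dose response in 96-well plates. The concentration for 50% growth inhibition is given as GI50.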 Calls of active or inactive are those of the source. No stated cut-off is given here; in the data, active = GI50 up to about 1.1 µM and inactive = higher.

Test systems include UO-31; HCT-116; 786-0; TK-10; LOX IMVI; UACC-257; HOP-62; U-251; IGROV-1; NCI-H460; RXF 393; KM12; MDA-N; Malme-3M; OVCAR-4; SF-295; SN12C; RPMI-8226; HL-60; HCC 2998.
Test in all cases: growth of human tumour cells (NCI), 48 h

In the case of `Oc1c(Cl)cc(CN(Cc2cc(Cl)c(O)c(Cl)c2)C2CCCCC2)cc1Cl`, the GI50 in the assay with UO-31, in the assay with HCT-116, in the assay on 786-0, in the assay with TK-10, with LOX IMVI and with UACC-257 was > 100 µM (inactive) throughout. In addition, the GI50 with HOP-62, with U-251, in the assay with IGROV-1, in the assay on NCI-H460, in the assay on RXF 393 and with KM12 was > 100 µM (inactive) each time. The GI50 in the assay with MDA-N, in the assay on Malme-3M, in the assay on OVCAR-4, with SF-295, in the assay with SN12C and in the assay with RPMI-8226 was > 100 µM (inactive) each time.
Turning to `C#CCOC(=O)c1ccccc1O`, the GI50 in the assay with UO-31, with HCT-116, with 786-0, with TK-10, in the assay with LOX IMVI and with UACC-257 was > 100 µM (inactive) in each case. The GI50 with HOP-62, with U-251, in the assay on IGROV-1, with HL-60, with NCI-H460 and in the assay with RXF 393 was > 100 µM (inactive) each time. The GI50 in the assay on KM12, in the assay with MDA-N, in the assay on OVCAR-4, with SF-295, in the assay on SN12C and in the assay with RPMI-8226 was > 100 µM (inactive) each time.
`Oc1nc(S)nc2c1C(c1ccc(Cl)cc1)c1c(O)nc(S)nc1O2`: the GI50 in the assay with UO-31, in the assay with HCT-116, in the assay with 786-0, in the assay with TK-10, in the assay with LOX IMVI and in the assay on UACC-257 was > 100 µM (inactive) throughout. Besides, the GI50 was > 100 µM (inactive) in the assay on HOP-62; > 100 µM (inactive) in the assay on U-251; > 100 µM (inactive) in the assay with IGROV-1; > 100 µM (inactive) in the assay on HL-60; > 100 µM (inactive) in the assay on NCI-H460; 0.514 µM (active) with RXF 393. Moreover, the GI50 in the assay on KM12, with MDA-N, in the assay on Malme-3M, in the assay on OVCAR-4, with SF-295 and in the assay on SN12C was > 100 µM (inactive) in each case. For the same compound, the GI50 with RPMI-8226 is > 100 µM (inactive).
`CN(Cc1ccccc1)c1nc(=[N+](C)C)ss1`: the GI50 in the assay on UO-31 is > 100 µM (inactive); in the assay with HCT-116 it was 34.6 µM (inactive); with HCC 2998, > 100 µM (inactive); in the assay with 786-0, > 100 µM (inactive); with TK-10 it was 35.2 µM (inactive); in the assay on LOX IMVI it was 36.8 µM (inactive). The GI50 was 56.5 µM (inactive) in the assay with UACC-257; > 100 µM (inactive) in the assay with HOP-62; 40.8 µM (inactive) with U-251; > 100 µM (inactive) with IGROV-1; 28.4 µM (inactive) in the assay on HL-60; 16.9 µM (inactive) in the assay with NCI-H460. Further, the GI50 with RXF 393 was > 100 µM (inactive); in the assay with KM12, 9.42 µM (inactive); in the assay with Malme-3M it was > 100 µM (inactive); in the assay with OVCAR-4 it was > 100 µM (inactive); in the assay with SF-295 it was > 100 µM (inactive); in the assay with SN12C, 65 µM (inactive). Also, the GI50 in the assay with RPMI-8226 was 28.3 µM (inactive).
As for `C1CCN(CCC2CCCCN2)CC1` (centres undefined), the GI50 with HCT-116, in the assay with 786-0, in the assay on TK-10, with LOX IMVI, in the assay on UACC-257 and in the assay with HOP-62 was > 100 µM (inactive) throughout. In addition, the GI50 in the assay on U-251 is > 100 µM (inactive); with IGROV-1, > 100 µM (inactive); in the assay with HL-60, > 100 µM (inactive); with NCI-H460, 55 µM (inactive); in the assay on RXF 393, > 100 µM (inactive); with KM12, > 100 µM (inactive). In addition, the GI50 in the assay with MDA-N, in the assay on Malme-3M, in the assay on OVCAR-4, with SF-295, with SN12C and in the assay on RPMI-8226 was > 100 µM (inactive) throughout.
For the compound `COC(=O)C1(NC(=O)C(CC(=O)OCc2ccccc2)NC(=O)OCc2ccccc2)CCCCCC1` (centres undefined), the GI50 with UO-31 is 35.1 µM (inactive); with HCT-116, 31 µM (inactive); in the assay with 786-0, 38.5 µM (inactive); in the assay with TK-10, 67.8 µM (inactive); with LOX IMVI it was 24.8 µM (inactive); with HOP-62 it was 10.1 µM (inactive). Moreover, the GI50 in the assay with U-251 was 44.9 µM (inactive); in the assay on IGROV-1, 37.6 µM (inactive); with HL-60 it was 17.7 µM (inactive); in the assay with NCI-H460 it was 34.8 µM (inactive); in the assay with RXF 393 it was 55 µM (inactive); in the assay with KM12 it was 50.1 µM (inactive). Further, the GI50 with MDA-N was 24.7 µM (inactive); in the assay on Malme-3M, 24.1 µM (inactive); in the assay with OVCAR-4 it was 14.1 µM (inactive); with SF-295, 34.4 µM (inactive); in the assay on RPMI-8226 it was 3.93 µM (inactive).
In the case of `O=c1[nH]c(N/N=C\C(O)C(O)C(O)C(O)CO)nc2ccccc12` (centres undefined), the GI50 with UO-31, in the assay on HCT-116, in the assay with 786-0, in the assay on TK-10, with LOX IMVI and with UACC-257 was > 100 µM (inactive) each time. In addition, the GI50 with HOP-62, in the assay with U-251, in the assay on IGROV-1, in the assay on HL-60, in the assay on NCI-H460 and in the assay on KM12 was > 100 µM (inactive) throughout. In addition, the GI50 with MDA-N, in the assay with SF-295, in the assay with SN12C and in the assay with RPMI-8226 was > 100 µM (inactive) each time.
Consider `CC(=O)OC1CCC2(C)C(=CC(C3C=C4CC(OC(C)=O)CCC4(C)C4=C3C3CC5OC6(CCC(C)CO6)C(C)C5C3(C)CC4)C3=C2CCC2(C)C3CC3OC4(CCC(C)CO4)C(C)C32)C1` (centres undefined), for which the GI50 with UO-31 is 15.5 µM (inactive); in the assay on HCT-116, 15.1 µM (inactive); in the assay on 786-0 it was 16.1 µM (inactive); in the assay on TK-10, 14.5 µM (inactive); in the assay with LOX IMVI, 16.5 µM (inactive); in the assay on UACC-257, 10.2 µM (inactive). The GI50 was 15.5 µM (inactive) with HOP-62; 14.7 µM (inactive) in the assay with U-251; 11.5 µM (inactive) with IGROV-1; 16.1 µM (inactive) with RXF 393; 18.2 µM (inactive) in the assay on KM12; 17.2 µM (inactive) in the assay on MDA-N. In addition, the GI50 in the assay on Malme-3M is 13.6 µM (inactive); with OVCAR-4 it was 14 µM (inactive); with SF-295 it was 13.2 µM (inactive); in the assay on SN12C, 17.6 µM (inactive); in the assay with RPMI-8226, 4.98 µM (inactive).
`COc1ccc(C2=NOP(c3ccccc3)(c3ccccc3)(c3ccccc3)C2)cc1`: the GI50 is 12.9 µM (inactive) in the assay on UO-31; 2.39 µM (inactive) in the assay with HCT-116; 20.9 µM (inactive) with HCC 2998; 21.2 µM (inactive) with 786-0; > 65.6 µM (inactive) in the assay on TK-10; 10.1 µM (inactive) in the assay with LOX IMVI. The GI50 in the assay with UACC-257 is 28.8 µM (inactive); with HOP-62, 20.8 µM (inactive); with U-251 it was 23.5 µM (inactive); in the assay with IGROV-1, 3.35 µM (inactive); in the assay on HL-60, 2.13 µM (inactive); in the assay on NCI-H460, 9.31 µM (inactive). Also, the GI50 in the assay on RXF 393 is 28.9 µM (inactive); in the assay with KM12, 34.1 µM (inactive); in the assay with Malme-3M, 21.9 µM (inactive); in the assay on OVCAR-4 it was 29.6 µM (inactive); with SF-295, 2.92 µM (inactive); in the assay with SN12C it was 29.6 µM (inactive). The GI50 with RPMI-8226 is 10.6 µM (inactive).
As for `N/C(=N\c1ccc(Cl)cc1)NS(=O)(=O)c1cccc2nsnc12`, the GI50 in the assay with UO-31 is 28.4 µM (inactive); with HCT-116 it was 31.8 µM (inactive); in the assay with 786-0, 24.7 µM (inactive); in the assay with TK-10 it was 22.3 µM (inactive); with LOX IMVI it was 25.1 µM (inactive); with UACC-257 it was 13.9 µM (inactive). Also, the GI50 is 94.2 µM (inactive) in the assay with HOP-62; 19.4 µM (inactive) in the assay on U-251; 23.7 µM (inactive) with IGROV-1; 17.9 µM (inactive) with HL-60; 19.1 µM (inactive) with NCI-H460; > 100 µM (inactive) in the assay with RXF 393. In addition, the GI50 in the assay on KM12 was 34.3 µM (inactive); in the assay with MDA-N, 23.7 µM (inactive); with Malme-3M it was 18 µM (inactive); in the assay on OVCAR-4, 15.2 µM (inactive); in the assay on SF-295, 45.5 µM (inactive); in the assay with SN12C it was 25.4 µM (inactive). In addition, the GI50 in the assay with RPMI-8226 is 33.8 µM (inactive).
Turning to `CC(=O)O[C@H]1CCC2[C@@H]3CCC4Nc5c(cnn5-c5ccccc5)C[C@]4(C)C3CC[C@@]21C` (some centres undefined), the GI50 with UO-31 is 11 µM (inactive); in the assay on HCT-116, 14.3 µM (inactive); with HCC 2998 it was 9.55 µM (inactive); in the assay with 786-0 it was 8.49 µM (inactive); in the assay with TK-10, 19.2 µM (inactive); in the assay on LOX IMVI, 12.8 µM (inactive). Besides, the GI50 with UACC-257 is 11.5 µM (inactive); with HOP-62, 18.3 µM (inactive); with U-251, 17.9 µM (inactive); in the assay with IGROV-1, 20.7 µM (inactive); in the assay on HL-60 it was 7.64 µM (inactive); in the assay on NCI-H460 it was 15.8 µM (inactive). For the same compound, the GI50 with RXF 393 is 5.65 µM (inactive); in the assay on KM12, 17.7 µM (inactive); with Malme-3M, 11.8 µM (inactive); with OVCAR-4, 21.4 µM (inactive); in the assay with SF-295 it was 2.97 µM (inactive); in the assay with SN12C, 19.1 µM (inactive). Further, in the assay on RPMI-8226, the GI50 was 4.2 µM (inactive).
